Measured values reported in ChEMBL document CHEMBL3046822, “Synthesis, antiplatelet aggregation activity, and molecular modeling study of novel substituted-piperazine analogues” (2011).
Activity calls are given as the source filed them.

How the values were obtained:
Platelet [1] = assay: Antiaggregating activity in Homo sapiens (human) platelet rich plasma assessed as inhibition of adrenaline-induced platelet aggregation at 1 uM incubated for 4 min prior to adrenaline-induction measured for 5.5 min by turbidometric analysis; assay type: functional, cell-free
[2] = Antiaggregating activity in Homo sapiens (human) platelet rich plasma assessed as ristocetin-induced platelet aggregation at 1 uM incubated for 4 min prior to ristocetin-induction measured for 5.5 min by turbidometric analysis (reference value: 65 to 99%); assay type: functional
Platelet [3] = assay: Antiaggregating activity in Homo sapiens (human) platelet rich plasma assessed as inhibition of adrenaline-induced platelet aggregation at 2.5 uM incubated for 4 min prior to adrenaline-induction measured for 5.5 min by turbidometric analysis; assay type: functional, cell-free
Platelet [4] = assay: Antiaggregating activity in Homo sapiens (human) platelet rich plasma assessed as collagen-induced platelet aggregation at 0.25 uM incubated for 4 min prior to collagen-induction measured for 5.5 min by turbidometric analysis (reference value: 50 to 98%); assay type: functional
Platelet [5] = assay: Antiaggregating activity in Homo sapiens (human) platelet rich plasma assessed as inhibition of collagen-induced platelet aggregation at 1 uM incubated for 4 min prior to collagen-induction measured for 5.5 min by turbidometric analysis; assay type: functional, cell-free
Platelet [6] = assay: Antiaggregating activity in Homo sapiens (human) platelet rich plasma assessed as inhibition of arachidonic acid-induced platelet aggregation at 2.5 uM incubated for 4 min prior to arachidonic acid-induction measured for 5.5 min by turbidometric analysis; assay type: functional, cell-free
Platelet [7] = assay: Antiaggregating activity in Homo sapiens (human) platelet rich plasma assessed as inhibition of collagen-induced platelet aggregation at 2.5 uM incubated for 4 min prior to collagen-induction measured for 5.5 min by turbidometric analysis; assay type: functional, cell-free
Platelet [8] = assay: Antiaggregating activity in Homo sapiens (human) platelet rich plasma assessed as inhibition of arachidonic acid-induced platelet aggregation at 1 uM incubated for 4 min prior to arachidonic acid-induction measured for 5.5 min by turbidometric analysis; assay type: functional, cell-free
Platelet [9] = assay: Antiaggregating activity in Homo sapiens (human) platelet rich plasma assessed as inhibition of ADP-induced platelet aggregation at 2.5 uM incubated for 4 min prior to ADP-induction measured for 5.5 min by turbidometric analysis; assay type: functional, cell-free
Platelet [10] = assay: Antiaggregating activity in Homo sapiens (human) platelet rich plasma assessed as inhibition of ADP-induced platelet aggregation at 1 uM incubated for 4 min prior to ADP-induction measured for 5.5 min by turbidometric analysis; assay type: functional, cell-free
Platelet [11] = assay: Antiaggregating activity in Homo sapiens (human) platelet rich plasma assessed as inhibition of adrenaline-induced platelet aggregation at 0.5 uM incubated for 4 min prior to adrenaline-induction measured for 5.5 min by turbidometric analysis; assay type: functional, cell-free
Platelet [12] = assay: Antiaggregating activity in Homo sapiens (human) platelet rich plasma assessed as inhibition of ristocetin-induced platelet aggregation at 5 uM incubated for 4 min prior to ristocetin-induction measured for 5.5 min by turbidometric analysis; assay type: functional, cell-free
Platelet [13] = assay: Antiaggregating activity in Homo sapiens (human) platelet rich plasma assessed as inhibition of collagen-induced platelet aggregation at 2 uM incubated for 4 min prior to collagen-induction measured for 5.5 min by turbidometric analysis; assay type: functional, cell-free
Platelet [14] = assay: Antiaggregating activity in Homo sapiens (human) platelet rich plasma assessed as inhibition of arachidonic acid-induced platelet aggregation at 5 uM incubated for 4 min prior to arachidonic acid-induction measured for 5.5 min by turbidometric analysis; assay type: functional, cell-free
[15] = Antiaggregating activity in Homo sapiens (human) platelet rich plasma assessed as ADP-induced platelet aggregation at 0.5 uM incubated for 4 min prior to ADP-induction measured for 5.5 min by turbidometric analysis (reference value: 54 to 88%); assay type: functional
[16] = Antiaggregating activity in Homo sapiens (human) platelet rich plasma assessed as arachidonic acid-induced platelet aggregation at 1 uM incubated for 4 min prior to arachidonic acid-induction measured for 5.5 min by turbidometric analysis (reference value: 55 to 100%); assay type: functional
Platelet [17] = assay: Antiaggregating activity in Homo sapiens (human) platelet rich plasma assessed as inhibition of adrenaline-induced platelet aggregation at 2 uM incubated for 4 min prior to adrenaline-induction measured for 5.5 min by turbidometric analysis; assay type: functional, cell-free
Platelet [18] = assay: Antiaggregating activity in Homo sapiens (human) platelet rich plasma assessed as inhibition of ADP-induced platelet aggregation at 2 uM incubated for 4 min prior to ADP-induction measured for 5.5 min by turbidometric analysis; assay type: functional, cell-free
[19] = Antiaggregating activity in Homo sapiens (human) platelet rich plasma assessed as collagen-induced platelet aggregation at 0.5 uM incubated for 4 min prior to collagen-induction measured for 5.5 min by turbidometric analysis (reference value: 50 to 98%); assay type: functional
[20] = Antiaggregating activity in Homo sapiens (human) platelet rich plasma assessed as arachidonic acid-induced platelet aggregation at 0.5 uM incubated for 4 min prior to arachidonic acid-induction measured for 5.5 min by turbidometric analysis (reference value: 55 to 100%); assay type: functional
[21] = Antiaggregating activity in Homo sapiens (human) platelet rich plasma assessed as disaggregation of ADP-induced platelet aggregation at 1 uM incubated for 4 min prior to ADP-induction measured for 5.5 min by turbidometric analysis relative to control; assay type: functional
[22] = Antiaggregating activity in Homo sapiens (human) platelet rich plasma assessed as ristocetin-induced platelet aggregation at 0.5 uM incubated for 4 min prior to ristocetin-induction measured for 5.5 min by turbidometric analysis (reference value: 65 to 99%); assay type: functional
[23] = Antiaggregating activity in Homo sapiens (human) platelet rich plasma assessed as ristocetin-induced platelet aggregation at 2 uM incubated for 4 min prior to ristocetin-induction measured for 5.5 min by turbidometric analysis (reference value: 65 to 99%); assay type: functional
Platelet [24] = assay: Antiaggregating activity in Homo sapiens (human) platelet rich plasma assessed as inhibition of collagen-induced platelet aggregation at 5 uM incubated for 4 min prior to collagen-induction measured for 5.5 min by turbidometric analysis; assay type: functional, cell-free
Platelet [25] = assay: Antiaggregating activity in Homo sapiens (human) platelet rich plasma assessed as inhibition of arachidonic acid-induced platelet aggregation at 2 uM incubated for 4 min prior to arachidonic acid-induction measured for 5.5 min by turbidometric analysis; assay type: functional, cell-free
Platelet [26] = assay: Antiaggregating activity in Homo sapiens (human) platelet rich plasma assessed as inhibition of adrenaline-induced platelet aggregation at 5 uM incubated for 4 min prior to adrenaline-induction measured for 5.5 min by turbidometric analysis; assay type: functional, cell-free
Platelet [27] = assay: Antiaggregating activity in Homo sapiens (human) platelet rich plasma assessed as inhibition of ADP-induced platelet aggregation at 5 uM incubated for 4 min prior to ADP-induction measured for 5.5 min by turbidometric analysis; assay type: functional, cell-free
Platelet [28] = assay: Antiaggregating activity in Homo sapiens (human) platelet rich plasma assessed as inhibition of ADP-induced platelet aggregation at 0.5 uM incubated for 4 min prior to ADP-induction measured for 5.5 min by turbidometric analysis; assay type: functional, cell-free
Platelet [29] = assay: Antiaggregating activity in Homo sapiens (human) platelet rich plasma assessed as inhibition of arachidonic acid-induced platelet aggregation at 0.5 uM incubated for 4 min prior to arachidonic acid-induction measured for 5.5 min by turbidometric analysis; assay type: functional
Platelet [30] = assay: Antiaggregating activity in Homo sapiens (human) platelet rich plasma assessed as inhibition of adrenaline-induced platelet aggregation at 0.1 uM incubated for 4 min prior to adrenaline-induction measured for 5.5 min by turbidometric analysis; assay type: functional, cell-free
[31] = Antiaggregating activity in Homo sapiens (human) platelet rich plasma assessed as ADP-induced platelet aggregation at 0.1 uM incubated for 4 min prior to ADP-induction measured for 5.5 min by turbidometric analysis (reference value: 54 to 88%); assay type: functional
Platelet [32] = assay: Antiaggregating activity in Homo sapiens (human) platelet rich plasma assessed as inhibition of ADP-induced platelet aggregation at 0.25 uM incubated for 4 min prior to ADP-induction measured for 5.5 min by turbidometric analysis; assay type: functional, cell-free
[33] = Antiaggregating activity in Homo sapiens (human) platelet rich plasma assessed as ristocetin-induced platelet aggregation at 0.1 uM incubated for 4 min prior to ristocetin-induction measured for 5.5 min by turbidometric analysis (reference value: 65 to 99%); assay type: functional
[34] = Antiaggregating activity in Homo sapiens (human) platelet rich plasma assessed as ristocetin-induced platelet aggregation at 0.25 uM incubated for 4 min prior to ristocetin-induction measured for 5.5 min by turbidometric analysis (reference value: 65 to 99%); assay type: functional
Platelet [35] = assay: Antiaggregating activity in Homo sapiens (human) platelet rich plasma assessed as inhibition of collagen-induced platelet aggregation at 0.5 uM incubated for 4 min prior to collagen-induction measured for 5.5 min by turbidometric analysis; assay type: functional, cell-free
Platelet [36] = assay: Antiaggregating activity in Homo sapiens (human) platelet rich plasma assessed as inhibition of adrenaline-induced platelet aggregation at 0.25 uM incubated for 4 min prior to adrenaline-induction measured for 5.5 min by turbidometric analysis; assay type: functional, cell-free
[37] = Antiaggregating activity in Homo sapiens (human) platelet rich plasma assessed as arachidonic acid-induced platelet aggregation at 0.1 uM incubated for 4 min prior to arachidonic acid-induction measured for 5.5 min by turbidometric analysis (reference value: 55 to 100%); assay type: functional
Platelet [38] = assay: Antiaggregating activity in Homo sapiens (human) platelet rich plasma assessed as inhibition of collagen-induced platelet aggregation at 0.25 uM incubated for 4 min prior to collagen-induction measured for 5.5 min by turbidometric analysis; assay type: functional
[39] = Antiaggregating activity in Homo sapiens (human) platelet rich plasma assessed as collagen-induced platelet aggregation at 0.1 uM incubated for 4 min prior to collagen-induction measured for 5.5 min by turbidometric analysis (reference value: 50 to 98%); assay type: functional
Platelet [40] = assay: Antiaggregating activity in Homo sapiens (human) platelet rich plasma assessed as inhibition of arachidonic acid-induced platelet aggregation at 0.25 uM incubated for 4 min prior to arachidonic acid-induction measured for 5.5 min by turbidometric analysis; assay type: functional, cell-free
[41] = Antiaggregating activity in Homo sapiens (human) platelet rich plasma assessed as disaggregation of ADP-induced platelet aggregation at 0.25 uM incubated for 4 min prior to ADP-induction measured for 5.5 min by turbidometric analysis relative to control; assay type: functional

Cl.Cl.O=C(C1CCCN(Cc2ccccc2F)C1)N1CCN(C(=O)C2CCCN(Cc3ccccc3F)C2)CC1 (stereo not given)
64%: Activity [2]
active: inhibition (Platelet [1]) | inhibition (Platelet [3]) | inhibition (Platelet [4]) | inhibition (Platelet [5]) | inhibition (Platelet [6]) | inhibition (Platelet [7]) | inhibition (Platelet [8]) | inhibition (Platelet [9]) | inhibition (Platelet [10])

O=C(c1ccc[n+](Cc2ccccc2F)c1)N1CCN(c2ccccc2Cl)CC1.[Cl-]
89%: Activity [22]
80%: Activity [16]
active: inhibition (Platelet [11]) | inhibition (Platelet [12]) | inhibition (Platelet [13]) | inhibition (Platelet [14]) | inhibition (Platelet [1]) | inhibition (Platelet [17]) | inhibition (Platelet [18]) | inhibition (Platelet [5]) | inhibition (Platelet [24]) | inhibition (Platelet [25]) | inhibition (Platelet [26]) | inhibition (Platelet [27])
55%: Activity [21]
71%: Activity [15] | Activity [20]
66%: Activity [23]
90%: Activity [19]
85%: Activity [2]

Cl.Cl.O=C(C1CCCN(Cc2ccc(CN3CCCC(C(=O)N4CCN(c5ncccn5)CC4)C3)cc2)C1)N1CCN(c2ncccn2)CC1 (stereo not given)
92%: Activity [22]
58%: Activity [2]
23%: Activity [19]
active: inhibition (Platelet [11]) | inhibition (Platelet [1]) | inhibition (Platelet [28]) | inhibition (Platelet [29]) | inhibition (Platelet [5]) | inhibition (Platelet [8]) | inhibition (Platelet [10])

Cl.O=C(C1CCCN(Cc2ccccc2)C1)N1CCN(c2ccccc2Cl)CC1 (stereo not given)
100%: Activity [39]
26%: Activity [22]
active: inhibition (Platelet [11]) | inhibition (Platelet [12]) | inhibition (Platelet [30]) | inhibition (Platelet [14]) | inhibition (Platelet [1]) | inhibition (Platelet [28]) | inhibition (Platelet [29]) | inhibition (Platelet [32]) | inhibition (Platelet [35]) | inhibition (Platelet [36]) | inhibition (Platelet [5]) | inhibition (Platelet [24]) | inhibition (Platelet [38]) | inhibition (Platelet [8]) | inhibition (Platelet [26]) | inhibition (Platelet [10]) | inhibition (Platelet [40]) | inhibition (Platelet [27])
86%: Activity [31]
30%: Activity [34]
90%: Activity [33]
23%: Activity [37]
22%: Activity [2]

Cl.Cl.O=C(C1CCCN(Cc2ccccc2)C1)N1CCN(C(=O)C2CCCN(Cc3ccccc3)C2)CC1 (stereo not given)
9%: Activity [23]
active: inhibition (Platelet [13]) | inhibition (Platelet [17]) | inhibition (Platelet [18]) | inhibition (Platelet [25])

Cl.O=C(c1ccc(Br)cc1)N1CCCC(C(=O)N2CCN(c3ccccc3Cl)CC2)C1 (stereo not given)
active: inhibition (Platelet [11]) | inhibition (Platelet [28]) | inhibition (Platelet [29]) | inhibition (Platelet [3]) | inhibition (Platelet [35]) | inhibition (Platelet [4]) | inhibition (Platelet [36]) | inhibition (Platelet [6]) | inhibition (Platelet [38]) | inhibition (Platelet [7]) | inhibition (Platelet [9]) | inhibition (Platelet [40])
75%: Activity [22]
81%: Activity [34]
47%: Activity [41]
